We go through two compounds from EP1113802B1, “ANTIVIRAL COMBINATIONS OF […] ADEFOVIR” (priority 1998, dated 2000).

The test system of series [1] is HBV. To be noted: to the end of the second year of a two year study; cited from earlier work.
A short description of series [2]: in vitro. Format: cell-based. To be noted: human; HepG2 cells; read-out: cytotoxic IC50. The procedure: The IC50 for PMEA was determined against wild type (WT) and lamivudine resistant HBV transiently expressed in a cell culture system as described below. HepG2 cells were transiently transfected with plasmid containing the HBV genome that had the wild type sequence or contained the following lamivudine resistant mutations in the reverse transcriptase gene; M552I, M552V, L528M, L528MM552V. […] HepG2 cells were seeded into 96-well Costar plates at 6300 cells per well in 150 µl of HepG2 media (Dulbecco's Modified Eagle Medium (DMEM), containing 10% fetal bovine serum) and were incubated overnight at 37°C. For each transfected well, 75 ng of plasmid DNA and 0.5 µl of lipofectamine (Gibco) were incubated together for 30 minutes at room temperature in 12.5 µl of OptiMem (Gibco) prior to addition of DNA/lipofectamine mixture to cells. Each well was rinsed with 150 µl of unsupplemented DMEM. […] HBV DNA levels were quantitated from media harvested from cells on day 7 using the methods described in Jansen RW, Johnson LC, Averett, DR. […] Cytotoxicity due to drug treatment was determined using the DNA stain Bisbenzimide (H33342 3HCl 4H2O; Calbiochem Company, La Jolla CA). […] Fluorescent values per well were determined with a Millipore Cytofluor 2350 fluorescent plate reader (excitation, 355 nm; emission, 460 nm; arbitrary units). […]

The test system of series [3] is WT HBV. As to the kind of experiment: PMEA inhibition of HBV DNA production, HepG2 cells transiently transfected with HBV genome plasmid. The class given is cell-based. To be noted: Hepatitis B virus, 168 h, WT construct, day 7, read-out: IC50 PMEA (95%Cl). As to the method:
(§1) The human hepatobtastoma cell line (Hep-G2-2.2.15) which constitutively produces infectious HBV was seeded into 96 well microtiter plates at a density of 5 x 10^3 cells per well. These cells were treated with a combination of lamivudine and PMEA on triplicate plates. Culture media containing drugs was replenished every other day for 9 days, at which time supernatants were collected and analyzed for HBV content. The lamivudine/PMEA combination was tested twice in triplicate in matrix fashion. […] Data were normalised to values obtained with non-drug treated cells, and expressed as a percent of control for analysis. […] Briefly, HBV detection was performed by "capturing" virus from supernatants on Anti-HBsAg coated plates, washing, denaturing to release HBV DNA, performing PCR with biotinylated primers, streptavidin capture of biotinylated PCR products with concomitant probe hybridization, addition of substrate, and reading optical densities of the colorimetric reaction. Dilutions of a standardized HBV-containing supernatant were included on every plate, and HBV DNA concentrations of test wells were calculated from this HBV standard curve. The useful range of detection is at least .045 to 45 fg of HBV DNA, where 30 copies of the genome can be reliably detected. […]

The subject of series [4] is Human hepatitis B DNA polymerase which expresses lamivudine codons. The following applies: Xiong et al. 1997, Abstract No. 1211; cited from earlier work.
The subject of series [5] is WT HBV produced by the 2.2.15 cells. The following applies: Heijtink et al. 1993, read-out: IC50 of PMEA, literature value using the same cell line; cited from earlier work.
Series [6] shares this test system. As to the kind of experiment: PMEA inhibition of HBV DNA production in 2.2.15 stable HBV-producer cells. The class given is cell-based. The following applies: Hepatitis B virus, 168 h, HBV DNA in media on day 7, read-out: IC50 PMEA (95%Cl). The procedure:
as §1

In series [7] the test system is HBV L528M. Kind of series: PMEA inhibition of HBV DNA production, HepG2 cells transiently transfected with HBV genome plasmid. The class given is cell-based, hepatitis B virus. As to the method:
(§2) The human hepatobtastoma cell line (Hep-G2-2.2.15) which constitutively produces infectious HBV was seeded into 96 well microtiter plates at a density of 5 x 10^3 cells per well. These cells were treated with a combination of lamivudine and PMEA on triplicate plates. Culture media containing drugs was replenished every other day for 9 days, at which time supernatants were collected and analyzed for HBV content. The lamivudine/PMEA combination was tested twice in triplicate in matrix fashion. Experiment 1 utilised a lamivudine range of 100 nM to 0.14 nM (3-fold dilutions in columns), and PMEA, 9-[(R)-2-(phosphonomethoxy)ethyl]adenine (adefovir), at concentrations of 1 µM to 10 nM (3.16 fold dilutions in rows). Experiment 2 was performed with dilutions of Lamivudine ranging from 100nM to .045 nM (in 3-fold dilutions in columns), and a PMEA range of 5 µM to 0.16 nM (3.16 fold dilutions in rows). Both drugs were diluted in a separate 96 well microtiter plate, and subsequently transferred onto plates containing the cell monolayers. Cells are grown in 150 µl RPMI 1640 supplemented with 2 mM L-Glutamine and 10% fetal bovine serum. Prior to transfer of drug, 120 µl of media was removed from the cells, leaving 30 µl on the monolayers to prevent drying. 90 µl of fresh media without drug was added, followed by the addition of 30 µl of 5X drug dilutions. Lamivudine and PMEA were each tested on their respective plates individually at the same concentrations. Data were normalised to values obtained with non-drug treated cells, and expressed as a percent of control for analysis. The method used for detection of HBV has been previously described (Jansen RW, Johnson LC, Averett, DR. High-Capacity in vitro assessment of anti-hepatitis B virus compound selectivity by a virion-specific polymerase chain reaction assay. Antimicrob Agents Chem 1993; 37 (3): 441-447.). Briefly, HBV detection was performed by "capturing" virus from supernatants on Anti-HBsAg coated plates, washing, denaturing to release HBV DNA, performing PCR with biotinylated primers, streptavidin capture of biotinylated PCR products with concomitant probe hybridization, addition of substrate, and reading optical densities of the colorimetric reaction. Dilutions of a standardized HBV-containing supernatant were included on every plate, and HBV DNA concentrations of test wells were calculated from this HBV standard curve. The useful range of detection is at least .045 to 45 fg of HBV DNA, where 30 copies of the genome can be reliably detected. Samples were tested in conjunction with both positive (.448 fg/ul plasmid DNA) and negative (RPMI medium supplemented with 2 mM L-Glutamine and 10% Fetal calf serum) controls. The average IC50 and standard error of the IC50s for the triplicate plates were calculated using SAS nonlinear regression to fit data to the Hill equation for each concentration response curve. When only a single determination of an IC50 for a particular dose combination could be made, the average of the standard errors from adjacent concentrations was used to estimate the standard error. Fractional inhibitory concentrations (FIC50) were calculated for each combination and plotted using the isobologram representation (Berenbaum, M.C. (1985) The Expected Effect ofa Combination of Agents: the General Solution. J. Theor. Biol. 114, 413-431). To assess statistical significance of synergy or antagonism, an unpaired t-test was used to compare each sum of paired FIC50 values with the theoretical value of 1. P values less than 0.05 were considered statistically significant. Comparison of P values between experiments must be interpreted with great care, as the experiments utilized different test concentration ranges (or ranges useable by the isobologram method). In some cases not all concentrations tested could support calculation of an IC50, since response was inhibited to a greater extent than 50 percent of control for all doses. […]

Series [8] has as its system HBV M552I. The description is as above. Format: cell-based, hepatitis B virus. The procedure: as §2
The subject of series [9] is HBV L528M/ M552V. The series is described as above. Format: cell-based, hepatitis B virus. The procedure:
as §2

Series [10] relates to HBV M552V. Described as above. Format: cell-based, hepatitis B virus. The procedure: as §2

Read-outs that look alike come from different tables or passages of the source.

On to `Nc1ccn([C@@H]2CS[C@H](CO)O2)c(=O)n1` (relative stereo) [lamivudine, (2R,cis)-4-amino-1-(2-hydroxymethyl-1,3-oxathiolan-5-yl)-pyrimidin-2-one], for which the “patients maintaining undetectable levels of virus” value in series [1] is 52%.
Regarding `Nc1ncnc2c1ncn2CCOCP(=O)(O)O` [PMEA, 9-[(R)-2-(phosphonomethoxy)ethyl]adenine], the IC50 – broadly, the point on the concentration scale where inhibition reaches its midpoint – is 25 to 40 µM in series [2]; 0.53 µM in series [3]; 0.7 µM in series [5]; 0.43 µM in [6]; 0.87 µM in series [7] (Hepatitis B virus, 168 h, L528M construct, transfected HepG2 cells, day 7, read-out: IC50 PMEA (95%Cl)); 7.5 µM in series [8] (Hepatitis B virus, 168 h, M552I construct, transfected HepG2 cells, day 7, read-out: IC50 PMEA (95%Cl)). The IC50 was found to be 1.3 µM in series [9] (Hepatitis B virus, 168 h, L528M/ M552V construct, transfected HepG2 cells, day 7, read-out: IC50 PMEA (95%Cl)) and 9.8 µM in series [10] (Hepatitis B virus, 168 h, M552V construct, transfected HepG2 cells, day 7, read-out: IC50 PMEA (95%Cl)). Also, the “cross-resistance to PMEA” value in [4] is “lack of cross-resistance”. For the same compound, the “x-fold change in IC50” value in series [7] (L528M versus WT HBV) was determined as 1.6; in series [8] (M552I versus WT HBV), 14; in series [9] (L528M/ M552V versus WT HBV), 2.5; in series [10] (M552V versus WT HBV) it was 18.
